The term viability denotes a read-out of living cells in per cent, often relative to untreated cells.

The nature of the first data set: in vitro. To be noted: human, hela cells, % viability.
Regarding `CNC(=O)c1ccc(-c2ccc(CNC(=O)C(C)Oc3ccc(C)c(C)c3)cc2)nc1C` (stereo not drawn) [CBK286014], the viability at 28.5 h, 10 µM worked out at 104%.
Still for that read-out and setting: the result for `CC(CN(C)C(=O)c1c[nH]nn1)Oc1ccc(Cl)c(Cl)c1` (stereo not drawn) [CBK306160] reads 87.5%; that for `Cc1nc2sccn2c1CN(CCCN(C)C)Cc1ccco1` [CBK283199], 92.5%.
On the same count and under the same terms, with `Cc1nc(C)n(CCNC(=O)Cc2coc3cc(C)c(C)cc23)n1` [CBK282613] the figure was 90.7%; with `COc1cccn(CC(=O)N2CCc3sc(C(=O)N(C)C)cc3C2)c1=O` [CBK307665], 90.5%.
On the same count and under the same terms, the result for `O=C(O)CCC(=O)Nc1ccc(Br)cc1C(=O)c1ccc(Cl)cc1` [CBK262601] reads 86.7%.
For `O=C(O)CCN1CCN(S(=O)(=O)c2ccc3ccccc3c2)CC1` [CBK269255], the viability at 28.5 h, 10 µM came out at 88.4%.
On to `COc1ccc(C(=O)NCCc2nc3ccccc3[nH]2)cc1` [CBK261040], for which the viability at 28.5 h, 10 µM was 101%.
For the compound `COc1ccccc1CCC(=O)Nc1cnc(-c2ccc(F)cc2)c(-c2ccco2)n1` [CBK037002], the viability at 28.5 h, 10 µM came out at 95.1%.
`Cc1cccc(-c2n[nH]c(=S)n2CC(=O)Nc2cccc(C#Cc3ccccn3)c2)c1` [CBK296633]: the viability at 28.5 h, 10 µM is 92.8%.
On to `CCOC(=O)c1cnn2c(C)cc(C)nc12` [CBK101119], for which the viability at 28.5 h, 10 µM is 103%.
The same measure, in the same setting: the result for `CC(OC(=O)c1ccc2c(c1)C(=O)N(c1ccc([N+](=O)[O-])cc1)C2=O)C(=O)c1ccccc1` (stereo not drawn) [CBK157061] reads 94.3%; that for `CC1CCCN(c2ccc(NS(=O)(=O)c3ccc4[nH]c(=O)[nH]c(=O)c4c3)cc2)C1` (stereo not drawn) [CBK286376], 97.5%.
The same measure, in the same setting: the result for `Cc1nn(C)c2ncc(S(=O)(=O)NC(C)c3ccc(F)cc3)cc12` (stereo not drawn) [CBK305793] reads 93.4%.
As to `O=C1CC(C(=O)O)SC(NNC(=O)c2ccccc2)=N1` (stereo not drawn) [CBK267944], the viability at 28.5 h, 10 µM was 91.2%.
On the same count and under the same terms, with `CC(C)(CNC(=O)Cn1cccc(C(=O)NC2CCCCC2)c1=O)c1cccc(F)c1` [CBK286069] the figure was 86.9%; with `Cc1nc(SCCN2C(=O)c3ccccc3S2(=O)=O)c2ccccc2n1` [CBK296958], 90%; with `Cc1ccc(C(=O)Nc2nc(C)c(-c3n[nH]c(=S)n3C)s2)cn1` [CBK295327], 91.8%.
The same measure, in the same setting: with `Cc1cc(C)n(-c2ccnc(NCCc3cccnc3)n2)n1` [CBK288615] the figure was 94.7%; with `O=C1CCC(=O)N1CCOc1nccnc1OC1CCN(Cc2ccc(C(F)(F)F)cc2)CC1` [CBK084341], 96%.
In the case of `Cn1c(=O)c2[nH]c(CN3CCN(Cc4ccccc4)CC3)nc2n(C)c1=O` [CBK269519], the viability at 28.5 h, 10 µM came to 86.3%.
On the same count and under the same terms, with `COC(=O)c1cc(C#N)c(=O)n(CC(O)COc2c(C)cccc2C)c1` (stereo not drawn) [CBK305709] the figure was 97.2%.
The same measure, in the same setting: the result for `O=C(COc1ccccc1[N+](=O)[O-])Nc1ccc(Br)cc1C(=O)O` [CBK266008] reads 84.9%.
Same read-out and setting: the result for `Cc1ccc(C(=O)NC(=S)Nc2ccc(C(=O)O)c(Cl)c2)cc1Cl` [CBK265068] reads 95%; that for `COc1ccc(-c2noc(CN(C(C)=O)C3CCCCC3)n2)cc1` [CBK270264], 111%.
In the case of `CCc1nc2c(OCCC3CCCCC3)cccn2c1N(C)C(=O)CC(C)C` [CBK147671], the viability at 28.5 h, 10 µM worked out at 94.8%.
The same measure, in the same setting: the result for `O=C1CCC(=O)N1CCn1c(=O)n(S(=O)(=O)c2cccc(Cl)c2)c2ccccc21` [CBK106493] reads 93.1%; that for `COc1ccc(CNCCN)cc1` [CBK013010], 98.2%; that for `Cc1nnc(SCc2nc3ccccc3c(=O)[nH]2)[nH]1` [CBK267830], 90%.
On the same count and under the same terms, the result for `CN(CCN1CCCCC1=O)c1nccc(CCC(F)(F)F)n1` [CBK307218] reads 106%; that for `Cn1c(=O)c2c(ncn2CC(O)CO)n(C)c1=O` (stereo not drawn) [CBK200637], 98.5%; that for `CCCCSc1nc(N)cc(N2CCN3C(=O)CN(C)C(=O)C3C2)n1` (stereo not drawn) [CBK306940], 82.4%.
Regarding `O=S(=O)(Oc1ccccc1)c1ccc2c(c1)Cc1cc(S(=O)(=O)Oc3ccccc3)ccc1-2` [CBK231928], the viability at 28.5 h, 10 µM worked out at 88.5%.
Consider `Cc1nc2ccc(C(=O)NCCCN3CC(C)CC(C)C3)cc2[nH]1` (stereo not drawn) [CBK283298], for which the viability at 28.5 h, 10 µM stood at 85.4%.
Still for that read-out and setting: the result for `C=CCNC(=O)CSc1nc2sc(C)c(C)c2c(=O)[nH]1` [CBK287350] reads 88.2%; that for `COCCNCc1cccc(OCc2ccccc2)c1` [CBK269864C], 87.9%.
Still for that read-out and setting: the result for `O=C(c1ccc(F)cc1)N1CCN(c2ccc(Nc3ccncc3)nn2)CC1` [CBK287836] reads 99.7%; that for `CCOCCCNC(=O)c1cnn2c(C)c(Cc3cccc(C#N)c3)c(C)nc12` [CBK162081], 101%.
Still for that read-out and setting: the result for `CSc1ccccc1NC(=O)c1cccn(Cc2ccc(C)cc2)c1=O` [CBK294426] reads 87%; that for `COc1cc(CNC(C)(C)CO)c(Cl)cc1OC(C)C` [CBK269542], 89.9%.
On to `Cc1ccccc1-n1nc(-c2ccc(NC(=O)c3ccccc3)cc2)cc1NC(=O)c1ccccc1` [CBK261264], for which the viability at 28.5 h, 10 µM turned out to be 82.2%.
The same measure, in the same setting: the result for `CS(=O)(=O)c1ccc(-c2ccnc3nc(N)ccc23)cc1` [CBK067648] reads 117%.
Same read-out and setting: the result for `CCc1nn(CC(=O)N2CCCC2)c(=O)c2cc3occc3n12` [CBK283748] reads 93.3%; that for `CN(C)CCn1c2c(c3ccccc31)CCCn1nnnc1-2` [CBK267713C], 94.8%; that for `O=c1c(N2CCNCC2)nccn1CC1COc2ccccc2O1` (stereo not drawn) [CBK024845T], 87%.
On the same count and under the same terms, with `COc1ccc(CCNC(=O)CCn2nc(C)c(Cl)c2C)cc1C` [CBK281643] the figure was 89.5%.
Consider `CCn1cc(CN2CCCN(C(=O)c3cc(Cl)c[nH]3)CC2)cn1` [CBK306153], for which the viability at 28.5 h, 10 µM came to 90.6%.
On the same count and under the same terms, the result for `Cc1cc(OC(F)(F)F)ccc1S(=O)(=O)Nc1nc(CC(=O)O)cs1` [CBK000575] reads 87.8%; that for `CCOC(=O)c1c(NC(=O)CN2CC(C)OC(C)C2)sc2c1CCCC2` (stereo not drawn) [CBK265216], 103%; that for `CCCc1[nH]nc(O)c1CCc1ccccc1F` [CBK075080], 88.5%.
`O=C(O)/C=C/C(=O)Nc1ccc(S(=O)(=O)NCc2ccco2)cc1` [CBK264500]: the viability at 28.5 h, 10 µM is 106%.
Still for that read-out and setting: the result for `O=S(=O)(Nc1nc2ccccc2nc1Nc1ccccc1)c1ccccc1` [CBK260953] reads 94.5%; that for `Fc1ccc(CCN2CCC(Oc3nccnc3OCCN3CCOCC3)CC2)cc1` [CBK082937T], 88.3%.
On to `CCN(CC)Cc1c(O)ccc2c(C#N)c(C)n(-c3ccccc3)c12` [CBK261527C], for which the viability at 28.5 h, 10 µM amounted to 94.9%.
On the same count and under the same terms, the result for `CNC(=O)C1(Cc2ccc(-c3ccccc3)cc2)CCN(C(=O)CCc2ccccc2)CC1` [CBK285765] reads 91.8%; that for `O=C(N[C@H]1CCN2C(=O)[C@@H](Cc3ccccc3)NC(=O)[C@H]12)c1cnccn1` [CBK289231], 83.6%; that for `CC1=C[C@@H](CO)[C@H](C(C)C)C[C@H]1Cc1nnc(-c2ccncc2)o1` [CBK289222], 110%.
Consider `CCn1cc(C2CN(S(=O)(=O)c3cccc(COC)c3)CCO2)cn1` (stereo not drawn) [CBK304222], for which the viability at 28.5 h, 10 µM amounted to 93.7%.
The same measure, in the same setting: the result for `O=C(Nc1c(F)cc(F)cc1OC1CCNCC1)c1cccnc1` [CBK050275T] reads 100%; that for `Cc1cccc(CN2CCC(NC(=O)NCc3ccn(C)c3)CC2)c1` [CBK305259], 105%.
Turning to `N#Cc1ccc(Oc2ccc3c(c2)-c2cc(Oc4ccc(C#N)c(C#N)c4)ccc2S3(=O)=O)cc1C#N` [CBK261151], the viability at 28.5 h, 10 µM was found to be 92.4%.
The same measure, in the same setting: with `CC(C)(C)c1n[nH]c(C2CN(C(=O)CCc3ccco3)CCO2)n1` (stereo not drawn) [CBK305204] the figure was 81.5%; with `COc1ccc([N+](=O)[O-])cc1Nc1nc(-c2ccccc2)nc2ccccc12` [CBK265913], 95.4%.
On the same count and under the same terms, the result for `CC1(C)[C@H](Cc2cc(COc3ccccc3)on2)C[C@@H]1NS(C)(=O)=O` [CBK289703] reads 89.5%; that for `CCc1nn2c(=O)cc(CN3CCN(C(=O)c4cccs4)CC3)nc2s1` [CBK306474], 108%.
As for `c1cncc(-c2cncc(NCCc3c[nH]c4ccccc34)n2)c1` [CBK065186], the viability at 28.5 h, 10 µM was 89.7%.
Regarding `Cc1ccc(S(=O)(=O)NC(=O)Nc2cccc(NC(=O)NS(=O)(=O)c3ccc(C)cc3)n2)cc1` [CBK296102], the viability at 28.5 h, 10 µM worked out at 103%.
Turning to `[O-][S+](CC(O)COc1ccc(Cl)cc1)c1ccccn1` (stereo not drawn) [CBK261750], the viability at 28.5 h, 10 µM was 99.9%.
Same read-out and setting: the result for `CN1CC2(CCCN(Cc3nnc(-c4cccnc4)o3)C2)OC1=O` (stereo not drawn) [CBK306888] reads 110%; that for `O=C(CCN1C(=O)c2ccccc2C1=O)N1CCOCCOCCN(C(=O)CCN2C(=O)c3ccccc3C2=O)CCOCCOCC1` [CBK260964], 89.9%.
The same measure, in the same setting: the result for `Cc1cc2cc(CCNC(=O)C(=O)c3c[nH]c4ccccc34)c(O)nc2cc1C` [CBK287511] reads 89.5%; that for `COc1cc(CN2CCN(C(=O)c3ccccc3)CC2)cc(OC)c1O` [CBK263462], 94.3%.
Same read-out and setting: with `COc1cccc(CNC(C)(C)CO)c1OCc1ccc(Cl)cc1` [CBK266552C] the figure was 102%; with `Cc1ccc(NC(=O)Cc2ccc(N(C)C)cc2)c(C)n1` [CBK200295], 104%.
For the compound `CCOC(=O)c1cccnc1-c1ccc2[nH]ccc2c1` [CBK149238], the viability at 28.5 h, 10 µM amounted to 99.7%.

Still in this data set, the particulars now being: human, hela cells, % viability, bulk resorufin, single well.
On to `O=C(O)C(O)(c1ccccc1)c1cccs1` (stereo not drawn) [CBK022808], for which the viability at 28.5 h, 10 µM came out at 108%.
Still for that read-out and setting: with `COc1ccc(CCNCc2ccc3c(c2)OCO3)cc1` [CBK074488] the figure was 95.7%; with `O=C1NC(=O)N(Cc2ccccc2)C(=O)/C1=N\Nc1ccc([N+](=O)[O-])cc1` [CBK261123], 94.5%.

The values are drawn from publication PMC12040169 (PLOS Biology, 2025).
